Laboratory results from publication PMC5504357, “Antifungal Potential of Copper(II), Manganese(II) and Silver(I) 1,10-Phenanthroline Chelates Against Multidrug-Resistant Fungal Species Forming the Candida haemulonii Complex: Impact on the Planktonic and Biofilm Lifestyles” (Frontiers in Microbiology, 2017).
Values after ≈ are worked out from the molar mass of the structure shown. Where two headings read alike, the source gives them in different places.

Assays:
Solubility in solvents = format: physicochemical; details: solvents as named
Protocol: {[Cu(3,6,9-tdda)(phen)2].3H2O.EtOH}n (7). Step (i): Copper(II) acetate hydrate (1.50 g; 7.51 mmol) was dissolved in ethanol (50 mL) and the solution was added to an ethanolic solution (25 mL) of 3,6,9-trioxaundecanedioic acid (3,6,9-tddaH2) (2.84 g; […]). The light-green suspension was refluxed for 1 h, and after cooling to room temperature the light-green solid, [Cu(3,6,9-tdda)].H2O, was filtered off, washed with cold ethanol and air dried. Yield: 1.88 g (82.97%). % Calculated: C: 31.84, H: 4.68. % Found: C: 32.20, H: 4.60. […] Step (ii): [Cu(3,6,9-tdda)].H2O (1.00 g; 3.31 mmol) and phen (2.39 g; 13.26 mmol) were dissolved together in ethanol (50 mL) and the resulting dark-green mixture was refluxed for 2 h. The suspension was cooled and the green solid, {[Cu(3,6,9-tdda)(phen)2]3H2O.EtOH}n(7), was filtered off, washed with cold ethanol and air dried. Yield: 1.63 g (66.09%). % Calculated: C: 54.87, H: 5.42, N: 7.53. % Found: C: 54.65, H: 5.63, N: 7.39.
[Ag2(3,6,9-tdda)(phen)4].EtOH (16). Step (i): Silver(I) acetate (3.00 g; 17.97 mmol) was dissolved in ethanol (30 mL) and the solution was added to an ethanolic solution (25 mL) of 3,6,9-trioxaundecanedioic acid (3,6,9-tddaH2) (2.84 g; 8.95 mmol) and the orange-brown suspension refluxed for 3 h. […] Green [Ag2(3,6,9-tdda)(phen)4].EtOH (16) precipitated and was filtered off, washed with cold ethanol and air dried. Yield: 0.83 g (65.10%). % Calculated: C: 57.92, H: 4.19, N: 9.32. % Found: C: 57.75, H: […], N: 9.02. IR (KBr) νmax: 3380, 3046, 2905, 1978, 1804, 1618, 1585, 1509, 1421, 1322, 1263, 1215, 1121, 1077, 1018, 932, 890, 838, 726, 621, 465, 413 cm^−1. ^1H NMR (500 MHz, DMSO-d6, 313 K, TMS) δ = 9.12(8H, s), 8.63 (8H, d), 8.08 (8H, s), 7.91 (8H, dd), 3.74 (4H, s), 3.57 (8H, dd). ^13C NMR (125 MHz, DMSO-d6, 313 K, TMS) δ = 173.41, 151.28, 143.57, 138.03, 129.24, 127.37, 124.74, 71.44, 70.42, 69.74.

Candida duobushaemulonii [1] = assay: Planktonic growth, broth microdilution (CLSI M27-A3), MIC; format: cell-based
How it was run: (§1)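 Clinical isolates (nail, blood, urine) grown 48 h at 37°C in Sabouraud-dextrose, then tested by CLSI M27-A3 broth microdilution in RPMI 1640 over 0.0625-32 mg/L, 48 h at 37°C. MIC is the lowest concentration with no visible growth; geometric mean MIC calculated across all isolates.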

[2] = tested on: Candida haemulonii var. vulnera; assay: as above; format: cell-based
How it was run: as §1

Candida haemulonii [3] = assay: as above; format: cell-based
How it was run: as §1

C. haemulonii complex = assay: Planktonic growth, overall across all nine isolates; format: cell-based, Candida haemulonii complex; details: for MIC: read-out: Overall GM-MIC; for effect on planktonic fungal growth/viability (in words): nine clinical isolates, 0.0625-32 mg/L
How it was run: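 CLSI M27-A3 microdilution, RPMI 1640, 0.0625-32 mg/L; compounds from DMSO, metal salts and phen in water; 37°C, 48 h; MIC = no visible growth. Overall value: GM-MIC over nine isolates.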

[4] = Mammalian cell toxicity (MTT assay) and selectivity index; format: cell-based, Human; details: human, A549 cells (human lung adenocarcinoma); MTT, 48 h incubation
How it was run: (§2)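 A549 cells were exposed to compounds (0.0313–512 μg/mL) in DMEM for 48 h at 37 °C, 5% CO2. Viability was measured by MTT (3 h, dark), with formazan dissolved in DMSO and read at 450 nm. CC50 was derived, and SI calculated as A549 CC50 divided by C. haemulonii complex GM-MIC.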

Candida duobushaemulonii [5] = assay: Biofilm-growing cells, XTT assay, bMIC; format: cell-based; details: for GM-bMIC: geometric mean, C. duobushaemulonii isolates; for bMIC: mature biofilm, 48 h, 50% inhibition of metabolic activity
How it was run: (§3)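 XTT readout; bMIC = min. conc. inhibiting 50% metabolic activity vs untreated wells. Preformed 48 h biofilms (10^6 cells, Sabouraud-dextrose broth, 37°C), PBS-washed, then 48 h compound exposure at 37°C.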

[6] = tested on: Candida haemulonii var. vulnera; assay: Biofilm-growing cells, XTT assay, bMIC; format: cell-based; details: for GM-bMIC: geometric mean, C. haemulonii var. vulnera isolates; for bMIC: mature biofilm, 48 h, 50% inhibition of metabolic activity
How it was run: as §3

Candida haemulonii [7] = assay: Biofilm-growing cells, XTT assay, bMIC; format: cell-based; details: for GM-bMIC: geometric mean, C. haemulonii isolates, values marked * do not include LIP Ch4 (>512); for bMIC: mature biofilm, 48 h, 50% inhibition of metabolic activity
How it was run: as §3

[8] = tested on: Candida haemulonii complex; assay: Biofilm-growing cells, overall across isolates; format: cell-based; details: geometric mean across strains, values marked * do not include LIP Ch4 (>512)
How it was run: as §3

A549 cells = assay: Mammalian cell toxicity (MTT assay) and selectivity index; format: cell-based, Human; details: MTT, 48 h incubation
How it was run: as §2

[9] = Candidozyma duobushaemuli, 48 h, isolate LIP Ch1, planktonic, 48 h, 37°C, read-out: MIC
[10] = Candidozyma duobushaemuli, 48 h, isolate LIP Ch6, planktonic, 48 h, 37°C, read-out: MIC
[11] = Candidozyma duobushaemuli, 48 h, isolate LIP Ch8, planktonic, 48 h, 37°C, read-out: MIC
[12] = Candidozyma duobushaemuli, geometric mean of three C. duobushaemulonii isolates, read-out: GM-MIC
[13] = Candidozyma haemuli, 48 h, isolate LIP Ch5, planktonic, 48 h, 37°C, read-out: MIC
[14] = Candidozyma haemuli, 48 h, isolate LIP Ch9, planktonic, 48 h, 37°C, read-out: MIC
[15] = Candidozyma haemuli, 48 h, isolate LIP Ch11, planktonic, 48 h, 37°C, read-out: MIC
[16] = Candidozyma haemuli, geometric mean of three C. haemulonii var. vulnera isolates, read-out: GM-MIC
[17] = Candidozyma haemuli, 48 h, isolate LIP Ch4, planktonic, 48 h, 37°C, read-out: MIC
[18] = Candidozyma haemuli, 48 h, isolate LIP Ch7, planktonic, 48 h, 37°C, read-out: MIC
[19] = Candidozyma haemuli, 48 h, isolate LIP Ch12, planktonic, 48 h, 37°C, read-out: MIC
[20] = Candidozyma haemuli, geometric mean of three C. haemulonii isolates, read-out: GM-MIC
[21] = Candidozyma haemuli, geometric mean across all nine strains, in μM
[22] = Candidozyma haemuli, geometric mean across all nine strains

Row | Compound | Solubility (Solubility in solvents) | MIC (Candida duobushaemulonii [1]; [9]) | MIC (Candida duobushaemulonii [1]; [10]) | MIC (Candida duobushaemulonii [1]; [11]) | MIC (Candida duobushaemulonii [1]; [12]) | MIC [2, 13] | MIC [2, 14] | GM-bMIC (Candida duobushaemulonii [5]) | bMIC (Candida duobushaemulonii [5]; isolate LIP Ch1) | bMIC (Candida duobushaemulonii [5]; isolate LIP Ch6) | bMIC (Candida duobushaemulonii [5]; isolate LIP Ch8) | GM-bMIC [6] | bMIC ([6]; isolate LIP Ch5) | bMIC ([6]; isolate LIP Ch9) | bMIC ([6]; isolate LIP Ch13) | GM-bMIC (Candida haemulonii [7]) | bMIC (Candida haemulonii [7]; isolate LIP Ch4) | bMIC (Candida haemulonii [7]; isolate LIP Ch7) | bMIC (Candida haemulonii [7]; isolate LIP Ch14) | Overall GM-bMIC [8] | other results
1 | O.O.O=C([O-])COCCOCCOCC(=O)[O-].[Ag+].[Ag+] [[Ag2(3,6,9-tdda].2H2O] | soluble in hot H2O and hot DMSO |  |  |  |  |  |  |  |  |  |  |  |  |  |  |  |  |  |  |  | 
2 | O.O=C([O-])COCCOCCOCC(=O)[O-].[Cu+2] [[Cu(3,6,9-tdda)].H2O] | soluble in H2O, MeOH, EtOH and insoluble in CHCl3, ethyl acetate and acetone |  |  |  |  |  |  |  |  |  |  |  |  |  |  |  |  |  |  |  | 
3 | c1cnc2c(c1)ccc1cccnc12 [phen, 1,10-phenanthroline] |  | 1 µg/mL (≈ 5.55 µM) | 1 µg/mL (≈ 5.55 µM) | 1 µg/mL (≈ 5.55 µM) | 1 µg/mL (≈ 5.55 µM) | 1 µg/mL (≈ 5.55 µM) | 1 µg/mL (≈ 5.55 µM) | 1 mg/L | 1 mg/L | 1 mg/L | 1 mg/L | 10.08 mg/L | 4 mg/L | 32 mg/L | 8 mg/L | 12.70 mg/L | 512 mg/L | 2 mg/L | 2 mg/L | 5.04 mg/L | MIC [2, 15]: 0.5 µg/mL (≈ 2.77 µM); MIC [2, 16]: 0.79 µg/mL (≈ 4.38 µM); MIC (Candida haemulonii [3]; [17]): 1 µg/mL (≈ 5.55 µM); MIC (Candida haemulonii [3]; [18]): 1 µg/mL (≈ 5.55 µM); MIC (Candida haemulonii [3]; [19]): 1 µg/mL (≈ 5.55 µM); MIC (Candida haemulonii [3]; [20]): 1 µg/mL (≈ 5.55 µM); MIC (C. haemulonii complex; [21]): 5.16 µM; MIC (C. haemulonii complex; [22]): 0.93 µg/mL; effect on planktonic fungal growth/viability (in words) (C. haemulonii complex): appreciably deterred fungal growth; activity of metal-free phen relative to phendione (C. haemulonii complex; planktonic, more active than phendione): ~ 2 fold; CC50 at 48 h [4]: 4.3 µg/mL (≈ 23.9 µM); Overall GM-bMIC ([8]; in μM): 27.96 µM
4 | O=C1C(=O)c2cccnc2-c2ncccc21 [phendione, 1,10-phenanthroline-5,6-dione, reference compound] |  | 2 µg/mL (≈ 9.52 µM) | 4 µg/mL (≈ 19 µM) | 2 µg/mL (≈ 9.52 µM) | 2.52 µg/mL (≈ 12 µM) | 2 µg/mL (≈ 9.52 µM) | 2 µg/mL (≈ 9.52 µM) | 12.70 mg/L | 4 mg/L | 32 mg/L | 16 mg/L | 20.16 mg/L | 16 mg/L | 16 mg/L | 32 mg/L | 11.31^* mg/L | >512 mg/L | 8 mg/L | 16 mg/L | 14.67 mg/L | MIC [2, 15]: 2 µg/mL (≈ 9.52 µM); MIC [2, 16]: 2 µg/mL (≈ 9.52 µM); MIC (Candida haemulonii [3]; [17]): 2 µg/mL (≈ 9.52 µM); MIC (Candida haemulonii [3]; [18]): 2 µg/mL (≈ 9.52 µM); MIC (Candida haemulonii [3]; [19]): 2 µg/mL (≈ 9.52 µM); MIC (Candida haemulonii [3]; [20]): 2 µg/mL (≈ 9.52 µM); MIC (C. haemulonii complex; [21]): 10.3 µM; MIC (C. haemulonii complex; [22]): 2.16 µg/mL; effect on planktonic fungal growth/viability (in words) (C. haemulonii complex): appreciably deterred fungal growth; CC50 at 48 h [4]: 2.02 µg/mL (≈ 9.61 µM); Overall GM-bMIC ([8]; in μM): 76 µM
5 | {[Mn(3,6,9-tdda)(phen)2].3H2O.EtOH}n [compound 14] |  |  |  |  |  |  |  | 10.08 mg/L | 16 mg/L | 4 mg/L | 16 mg/L | 8 mg/L | 16 mg/L | 4 mg/L | 8 mg/L | 20.16 mg/L | 512 mg/L | 4 mg/L | 4 mg/L | 11.76 mg/L | GM-MIC (Candida duobushaemulonii [1]; geometric mean of three C. duobushaemulonii isolates): 3.17 µg/mL; MIC (Candida duobushaemulonii [1]; isolate LIP Ch1, planktonic, 48 h, 37°C): 4 µg/mL; MIC (Candida duobushaemulonii [1]; isolate LIP Ch6, planktonic, 48 h, 37°C): 4 µg/mL; MIC (Candida duobushaemulonii [1]; isolate LIP Ch8, planktonic, 48 h, 37°C): 2 µg/mL; GM-MIC ([2]; geometric mean of three C. haemulonii var. vulnera isolates): 2 µg/mL; MIC ([2]; isolate LIP Ch5, planktonic, 48 h, 37°C): 2 µg/mL; MIC ([2]; isolate LIP Ch9, planktonic, 48 h, 37°C): 2 µg/mL; MIC ([2]; isolate LIP Ch11, planktonic, 48 h, 37°C): 2 µg/mL; GM-MIC (Candida haemulonii [3]; geometric mean of three C. haemulonii isolates): 2 µg/mL; MIC (Candida haemulonii [3]; isolate LIP Ch4, planktonic, 48 h, 37°C): 2 µg/mL; MIC (Candida haemulonii [3]; isolate LIP Ch7, planktonic, 48 h, 37°C): 2 µg/mL; MIC (Candida haemulonii [3]; isolate LIP Ch12, planktonic, 48 h, 37°C): 2 µg/mL; Overall GM-MIC (C. haemulonii complex; geometric mean across all nine strains): 2.33 µg/mL; MIC (C. haemulonii complex; geometric mean across all nine strains, in μM): 3.15 µM; A549 (CC50) (A549 cells): 261.67 µg/mL
